Assay results as given in US20200368338A1, “CONJUGATE OF WT1-DERIVED PEPTIDES AND COMPOSITION COMPRISING THE SAME” (SUMITOMO DAINIPPON PHARMA CO., LTD., priority 2017, published 2020).

System: HLA-A2402 transgenic mouse
Experiment: Evaluation of CTL inducing ability in vivo in HLA-A2402 transgenic mouse (IFNγ ELISPOT assay of splenocytes)
Conditions: intradermal emulsion with Montanide ISA 51 VG, tail base, two sites, splenocytes one week after administration stimulated with peptide of SEQ ID NO: 4 at 10 μg/ml, FIG. 1
Experimental: The solution was diluted with water for injection to a concentration of 5.0 mg/mL, and then converted to an emulsion by addition of an equal volume of Montanide ISA 51 VG. […] One week after the administration, the mice were sacrificed with CO2 gas. Splenocytes were harvested from spleens removed from the mice. […] In particular, an ELISPOT plate was treated with an anti-mouse-IFNγ antibody on the day before preparation of the splenocyte samples. On the next day, the plate was blocked by treatment with an RPMI 1640 medium with 10% FBS. […] For in vitro stimulation of the cells, the peptide of SEQ ID NO: 4 was dissolved in DMSO at a concentration of 40 mg/ml, diluted with RPMI 1640 with 10% FBS to 40 μg/ml, and added to the splenocyte-containing wells at a final concentration of 10 μg/ml. […] Then, after removal of the culture medium from the wells, the ELISPOT plate was subjected to treatment for cell staining in accordance with the manufacturer's protocol. Stained spots were counted on ImmunoSpot Analyzer (C.T.L.).

CYTWNQMNL [peptide of SEQ ID NO: 4, HLA-A2402-restricted WT1 peptide]
induction of CTLs responsive to the peptide of SEQ ID NO: 4 (IFNγ-producing splenocytes): induced CTLs responsive to the peptide of SEQ ID NO: 4
